Columns and labels:
human thioredoxin = target: T1, human thioredoxin (Homo sapiens, UniProt P10599); test: Inhibition of human thioredoxin by disulfide analogs of PX-12 (kinh/Ki); format: biochemical; settings: for Trx kinh/Ki: human thioredoxin, bimolecular parameter estimating potency; for Trx/DTT: ratio of reactivity towards Trx relative to DTT (selectivity)
T1 construct: made in house; host or cells: E. coli
T1 sequence (P10599 1-105): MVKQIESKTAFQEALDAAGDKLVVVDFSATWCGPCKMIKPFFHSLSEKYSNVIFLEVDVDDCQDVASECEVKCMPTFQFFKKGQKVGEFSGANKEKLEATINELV

[1] = Reactivity of disulfide inhibitors towards dithiothreitol
[2] = target: T2, human transglutaminase 1 (TG1) (Homo sapiens, UniProt P22735); test: TG1 inhibition kinetics (kinh/Ki); format: biochemical
T2 sequence (P22735 1-817): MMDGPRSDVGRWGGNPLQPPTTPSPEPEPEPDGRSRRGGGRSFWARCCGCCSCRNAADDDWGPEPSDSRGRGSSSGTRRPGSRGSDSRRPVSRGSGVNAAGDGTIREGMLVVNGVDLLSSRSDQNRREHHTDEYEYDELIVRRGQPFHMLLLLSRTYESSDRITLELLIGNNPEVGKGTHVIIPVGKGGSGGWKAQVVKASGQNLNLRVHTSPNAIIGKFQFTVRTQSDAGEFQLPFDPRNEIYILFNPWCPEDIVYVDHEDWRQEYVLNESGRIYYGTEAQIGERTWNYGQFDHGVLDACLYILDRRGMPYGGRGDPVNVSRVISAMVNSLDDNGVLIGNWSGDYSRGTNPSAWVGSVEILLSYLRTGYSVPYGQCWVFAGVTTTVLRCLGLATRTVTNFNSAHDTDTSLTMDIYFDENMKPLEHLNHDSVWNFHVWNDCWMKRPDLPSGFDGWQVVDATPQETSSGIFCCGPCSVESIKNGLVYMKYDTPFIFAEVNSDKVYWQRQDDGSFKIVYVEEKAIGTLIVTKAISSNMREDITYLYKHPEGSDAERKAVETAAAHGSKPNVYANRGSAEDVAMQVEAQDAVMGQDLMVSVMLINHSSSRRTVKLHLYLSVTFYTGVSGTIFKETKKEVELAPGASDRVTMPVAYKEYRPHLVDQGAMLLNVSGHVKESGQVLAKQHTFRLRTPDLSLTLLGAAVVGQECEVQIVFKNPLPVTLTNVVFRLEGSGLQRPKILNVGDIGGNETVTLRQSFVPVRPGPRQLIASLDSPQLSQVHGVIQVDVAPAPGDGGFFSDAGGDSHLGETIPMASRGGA

human TG2 = target: T3, human TG2 (Homo sapiens, UniProt P21980); test: TG2 inhibition kinetics (kinh/Ki); format: biochemical
T3 sequence (P21980 1-687): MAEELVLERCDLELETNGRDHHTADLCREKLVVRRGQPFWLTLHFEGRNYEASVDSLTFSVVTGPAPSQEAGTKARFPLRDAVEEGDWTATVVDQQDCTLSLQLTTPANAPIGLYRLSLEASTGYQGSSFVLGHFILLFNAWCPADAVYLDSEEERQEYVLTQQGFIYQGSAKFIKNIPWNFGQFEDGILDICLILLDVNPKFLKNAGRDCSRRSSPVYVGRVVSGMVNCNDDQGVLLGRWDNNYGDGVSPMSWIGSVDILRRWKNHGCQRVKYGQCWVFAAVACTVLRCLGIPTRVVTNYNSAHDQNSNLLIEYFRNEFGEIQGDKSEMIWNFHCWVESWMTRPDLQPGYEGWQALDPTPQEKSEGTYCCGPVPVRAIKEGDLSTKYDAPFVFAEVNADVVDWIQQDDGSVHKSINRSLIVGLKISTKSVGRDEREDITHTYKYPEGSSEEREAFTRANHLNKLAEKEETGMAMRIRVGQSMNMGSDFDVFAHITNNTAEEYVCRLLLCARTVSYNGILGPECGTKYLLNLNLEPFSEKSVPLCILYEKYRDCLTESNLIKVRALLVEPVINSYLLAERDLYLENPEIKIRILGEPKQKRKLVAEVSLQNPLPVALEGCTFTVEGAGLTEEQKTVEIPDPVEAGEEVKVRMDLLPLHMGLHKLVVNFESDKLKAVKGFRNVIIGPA

SMILES	Trx kinh/Ki (human thioredoxin)	Trx/DTT (human thioredoxin)	kinh/Ki TG1 [2] [M⁻¹ s⁻¹]	kinh/Ki TG2 (human TG2) [M⁻¹ s⁻¹]	DTT k [1] [M⁻¹ s⁻¹]
CCSSc1nc2ccccc2[nH]1 [compound 4]	–	–	–	–	900
c1ccc2[nH]c(SSC3CCCC3)nc2c1 [compound 5]	4000 M⁻¹ s⁻¹	74	–	–	53.3
CC(C)(C)SSc1nc2ccccc2[nH]1 [compound 6]	–	–	–	–	~0.467
c1ccc2[nH]c(SSC3CCCCC3)nc2c1 [compound 7]	6330 M⁻¹ s⁻¹	83	–	–	76.7
CCC(C)SSc1nc2cc([N+](=O)[O-])ccc2[nH]1 (centres unmarked) [compound 9]	14500 M⁻¹ s⁻¹	362	–	–	40
CCC(C)SSc1nccs1 (centres unmarked) [compound 14]	833 M⁻¹ s⁻¹	68	–	–	12.3
CCC(C)SSc1nc2cc([N+](=O)[O-])ccc2s1 (centres unmarked) [compound 16]	5830 M⁻¹ s⁻¹	175	–	–	33.3
O=C(NC[C@@H]1CC(Br)=NO1)[C@@H]1C[C@@H](F)CN1C(=O)OCc1cnc2ccccc2c1 [compound 18]	–	–	111.6	120.8	–
O=C(NC[C@@H]1CC(Br)=NO1)[C@@H]1C[C@H](F)CN1C(=O)OCc1cnc2ccccc2c1 [compound 19]	–	–	100.7	223.93	–
O=C(NC[C@@H]1CC(Br)=NO1)[C@@H]1C[C@@H](O)CN1C(=O)OCc1cnc2ccccc2c1 [compound 20]	–	–	73.12	208.52	–
O=C(NC[C@@H]1CC(Br)=NO1)[C@@H]1C[C@@H](OCc2ccccc2)CN1C(=O)OCc1cnc2ccccc2c1 [compound 22]	–	–	–	128.5	–
C#CCO[C@@H]1C[C@@H](C(=O)NC[C@@H]2CC(Br)=NO2)N(C(=O)OCc2cnc3ccccc3c2)C1 [compound 23]	–	–	72.33	142	–
O=C(NC[C@@H]1CC(Br)=NO1)[C@@H]1Cc2ccccc2CN1C(=O)OCc1cnc2ccccc2c1 [compound 24]	–	–	–	130	–
O=C(NC[C@@H]1CC(Br)=NO1)[C@@H]1Cc2c([nH]c3ccccc23)CN1C(=O)OCc1cnc2ccccc2c1 [compound 25]	–	–	–	346.67	–
O=C(NC[C@@H]1CC(Br)=NO1)[C@@H]1CCCCN1C(=O)OCc1cnc2ccccc2c1 [compound 26]	–	–	384.87	138.3	–

Further lines, with some results ahead:

Trx kinh/Ki (human thioredoxin)	Trx/DTT (human thioredoxin)	kinh/Ki TG1 [2] [M⁻¹ s⁻¹]	kinh/Ki TG2 (human TG2) [M⁻¹ s⁻¹]	SMILES	DTT k [1] [M⁻¹ s⁻¹]
3170 M⁻¹ s⁻¹	39	–	–	CCC(C)SSc1nc2ccccc2[nH]1 (centres unmarked) [compound 3]	80
5500 M⁻¹ s⁻¹	72	–	–	CC(C)SSc1nc2ccccc2[nH]1 [compound 8]	76.7
3170 M⁻¹ s⁻¹	85	–	–	CCC(C)SSc1nc2ccncc2[nH]1 (centres unmarked) [compound 10]	36.7
40000 M⁻¹ s⁻¹	392	–	–	CCC(C)SSc1nc2ccccc2o1 (centres unmarked) [compound 12]	102
inactive	–	–	–	CCC(C)SSc1ccccn1 (centres unmarked) [compound 13]	0.617
250 M⁻¹ s⁻¹	88	–	–	CCC(C)SSc1nc2cc(Cl)ccc2s1 (centres unmarked) [compound 15]	2.83
817 M⁻¹ s⁻¹	82	–	–	CCC(C)SSc1nc2cccc(C)c2s1 (centres unmarked) [compound 17]	10
